# Results taken from PMC4839570, “Novel Anthra[1,2-c][1,2,5]Thiadiazole-6,11-Diones as Promising Anticancer Lead Compounds: Biological Evaluation, Characterization & Molecular Targets Determination” (PLoS ONE, 2016).
# Like-named read-outs stand apart in the source and are kept apart here.
# Columns and labels:
# SF-539 = assay: NCI-60 cytotoxicity screen; assay type: cell-based
# ACHN = assay: JFCR-39 cytotoxicity screen; assay type: cell-based
# LOX IMVI = assay: NCI-60 cytotoxicity screen; assay type: cell-based
# SK-MEL-2 = assay: NCI-60 cytotoxicity screen; assay type: cell-based
# CCRF-CEM = assay: NCI-60 cytotoxicity screen; assay type: cell-based
# SF-295 = assay: NCI-60 cytotoxicity screen; assay type: cell-based
# SK-OV-3 [1] = assay: NCI-60 cytotoxicity screen; assay type: cell-based
# SK-OV-3 [2] = assay: JFCR-39 cytotoxicity screen; assay type: cell-based
# SK-MEL-5 = assay: NCI-60 cytotoxicity screen; assay type: cell-based
# SNB-78 = assay: JFCR-39 cytotoxicity screen; assay type: cell-based
# HBC-4 = assay: JFCR-39 cytotoxicity screen; assay type: cell-based
# HCT-116 = assay: JFCR-39 cytotoxicity screen; assay type: cell-based
# OVCAR-4 = assay: NCI-60 cytotoxicity screen; assay type: cell-based
# HCT-15 = assay: NCI-60 cytotoxicity screen; assay type: cell-based
# [3] = system: normal cardiac myoblast H9c2 cells; conditions: rat
# Method: Briefly, 96 well microtiter plates were inoculated with the specified human cancer cell lines in RPMI 1640 medium containing 5% fetal bovine serum and 2 mM L-glutamine at the specified plating densities. The microtiter plates were incubated at 37°C, 5% CO2, and 100% relative humidity for 24 h. The test compounds were solubilized in DMSO at 400-fold the desired final maximum test concentration, diluted with complete medium containing gentamicin and added to the wells of the microtiter plates to achieve the final desired compound concentration, then incubated for an additional 48 h at the same incubation conditions. The media were removed, the cells were fixed then stained with sulforhodamine B and the unbound dye was removed by washing with acetic acid. The bound dye was resolubilized with trizma base and the absorbance at 515 nm was measured. Cells were stained with the WST-1 cell proliferation reagent instead of sulforhodamine B in some experiments and absorbance were measured at 440 nm. The three dose response parameters GI50, TGI and LC50 were calculated for each experimental compound as follows [48]: For values where Ti ≥ Tz the formula is [ (Ti-Tz) / (C-Tz)] x 100 For values where Ti < Tz the formula is [ (Ti-Tz) / Tz] x 100 Where Ti is the absorbance of the solubilized Sulforhodamine B (SRB) (representing the number of cells) of the five different concentrations of the compound used in the test, Tz is the absorbance of the SRB at time zero, and C is the absorbance of the SRB of the control growth.
# TK-10 = assay: NCI-60 cytotoxicity screen; assay type: cell-based
# HT-29 = assay: JFCR-39 cytotoxicity screen; assay type: cell-based
# KM12 = assay: NCI-60 cytotoxicity screen; assay type: cell-based
# NCI-H322M = assay: NCI-60 cytotoxicity screen; assay type: cell-based
# NCI/ADR-RES = assay: NCI-60 cytotoxicity screen; assay type: cell-based
# BT-549 = assay: NCI-60 cytotoxicity screen; assay type: cell-based
# MDA-MB-231 = assay: JFCR-39 cytotoxicity screen; assay type: cell-based
# BSY-1 = assay: JFCR-39 cytotoxicity screen; assay type: cell-based
# MDA-MB-231/ATCC = assay: NCI-60 cytotoxicity screen; assay type: cell-based
# OVCAR-5 = assay: JFCR-39 cytotoxicity screen; assay type: cell-based
# HOP-62 = assay: NCI-60 cytotoxicity screen; assay type: cell-based
# [4] = Homo sapiens, Fig 7, read-out: mean log10 of the GI50 values (converted)
# [5] = Homo sapiens, five-dose, read-out: GI50
# [6] = Homo sapiens, five-dose, read-out: LC50 (the source's name)
# [7] = Homo sapiens, read-out: LC50 (the source's name)
# [8] = Homo sapiens, single dose 10 μM, read-out: growth inhibition
compound,measurement,setting,value
"O=C1c2ccccc2C(=O)c2c1ccc1nsnc21 [NSC745885, anthra[1,2-c][1,2,5]thiadiazole-6,11-dione]",GI50,SF-539; [4],1.48 µM
same,GI50,SF-539; [5],1.46 µM
same,CC50,SF-539; [6],5.91 µM
same,TGI,SF-539; five-dose,2.94 µM
same,TGI,ACHN,3.8 µM
same,GI50,ACHN; Homo sapiens,1.9 µM
same,CC50,ACHN; [7],7.6 µM
same,GI50,"LOX IMVI; Homo sapiens, LOXIMVI, Fig 7, read-out: mean log10 of the GI50 values (converted)",0.912 µM
same,GI50,LOX IMVI; [5],0.82 µM
same,CC50,LOX IMVI; [6],4.86 µM
same,TGI,LOX IMVI; five-dose,2.13 µM
same,GI50,SK-MEL-2; [4],2 µM
same,GI50,SK-MEL-2; [5],1.68 µM
same,CC50,SK-MEL-2; [6],22.5 µM
same,TGI,SK-MEL-2; five-dose,4.22 µM
same,GI50,CCRF-CEM; [4],1.55 µM
same,GI50,CCRF-CEM; [5],1.08 µM
same,CC50,CCRF-CEM; [6],> 100 µM
same,TGI,CCRF-CEM; five-dose,4.10 µM
same,GI50,SF-295; [4],2.4 µM
same,GI50,SF-295; [5],1.9 µM
same,CC50,SF-295; [6],8.56 µM
same,TGI,SF-295; five-dose,4.04 µM
same,GI50,SK-OV-3 [1]; [4],4.17 µM
same,GI50,SK-OV-3 [1]; [5],7.71 µM
same,CC50,SK-OV-3 [1]; [6],53.4 µM
same,TGI,SK-OV-3 [1]; five-dose,22.5 µM
same,TGI,SK-OV-3 [2],8.3 µM
same,GI50,SK-OV-3 [2]; Homo sapiens,2.7 µM
same,CC50,SK-OV-3 [2]; [7],29 µM
same,GI50,SK-MEL-5; [4],1.35 µM
same,GI50,SK-MEL-5; [5],1.58 µM
same,CC50,SK-MEL-5; [6],5.41 µM
same,TGI,SK-MEL-5; five-dose,2.92 µM
same,TGI,SNB-78,3.4 µM
same,GI50,SNB-78; Homo sapiens,1.7 µM
same,CC50,SNB-78; [7],6.9 µM
same,TGI,HBC-4,3.0 µM
same,GI50,"HBC-4; Homo sapiens, HBC4",1.7 µM
same,CC50,"HBC-4; Homo sapiens, HBC4, read-out: LC50 (the source's name)",5.5 µM
same,TGI,HCT-116,3.0 µM
same,GI50,HCT-116; Homo sapiens,1.6 µM
same,CC50,HCT-116; [7],5.8 µM
same,GI50,OVCAR-4; [4],0.575 µM
same,GI50,OVCAR-4; [5],0.65 µM
same,CC50,OVCAR-4; [6],5.57 µM
same,inhibition at 10 µM,OVCAR-4; [8],94.4%
same,TGI,OVCAR-4; five-dose,2.17 µM
same,GI50,HCT-15; [4],2.04 µM
same,GI50,HCT-15; [5],1.71 µM
same,CC50,HCT-15; [6],8.12 µM
same,TGI,HCT-15; five-dose,3.72 µM
same,cytotoxicity towards normal cardiac myoblast H9c2 cells,[3],significantly less cytotoxic effects on H9c2 cells at higher doses than doxorubicin
same,GI50,TK-10; [4],10 µM
same,GI50,TK-10; [5],2.85 µM
same,CC50,TK-10; [6],50.4 µM
same,TGI,TK-10; five-dose,10.9 µM
same,TGI,HT-29,39.0 µM
same,GI50,HT-29; Homo sapiens,19 µM
same,CC50,HT-29; [7],81 µM
same,GI50,KM12; [4],4.68 µM
same,GI50,KM12; [5],1.96 µM
same,CC50,KM12; [6],59.7 µM
same,TGI,KM12; five-dose,5.54 µM
same,GI50,NCI-H322M; [4],36.3 µM
same,GI50,NCI-H322M; [5],17.4 µM
same,CC50,NCI-H322M; [6],> 100 µM
same,TGI,NCI-H322M; five-dose,47.8 µM
same,GI50,NCI/ADR-RES; [4],0.891 µM
same,GI50,NCI/ADR-RES; [5],1.86 µM
same,CC50,NCI/ADR-RES; [6],> 100 µM
same,TGI,NCI/ADR-RES; five-dose,12.6 µM
same,GI50,BT-549; [4],4.57 µM
same,GI50,BT-549; [5],1.63 µM
same,CC50,BT-549; [6],6.01 µM
same,TGI,BT-549; five-dose,3.13 µM
same,TGI,MDA-MB-231,5.5 µM
same,GI50,MDA-MB-231; Homo sapiens,1.4 µM
same,CC50,MDA-MB-231; [7],63 µM
same,TGI,BSY-1,2.8 µM
same,GI50,BSY-1; Homo sapiens,1.4 µM
same,CC50,BSY-1; [7],5.6 µM
same,GI50,MDA-MB-231/ATCC; [4],2.14 µM
same,GI50,MDA-MB-231/ATCC; [5],1.75 µM
same,CC50,MDA-MB-231/ATCC; [6],> 100 µM
same,TGI,MDA-MB-231/ATCC; five-dose,5.90 µM
same,TGI,OVCAR-5,3.4 µM
same,GI50,OVCAR-5; Homo sapiens,1.9 µM
same,CC50,OVCAR-5; [7],6 µM
same,GI50,HOP-62; [4],2.14 µM
same,GI50,HOP-62; [5],1.28 µM
same,CC50,HOP-62; [6],8.53 µM
same,inhibition at 10 µM,HOP-62; [8],100%
same,TGI,HOP-62; five-dose,3.31 µM
